# According to US11672843B2, “Somatostatin receptor agonist formulations” (CAMURUS AB, priority 2012, dated 2023):
# Counter-ions that a name gives are not always drawn. *1 amine or outer side, *2 acyl side, *3 side chain or, on linkers, in order; H or OH if unused. Where a SMILES comes first, the peptide text is derived from it. Side-chain parts run from the residue outwards. [ ]: non-standard residue; d: D form. The star is where a group is joined. Ethylenediamine = C(CN[*:2])N[*:1]; Hyp = O=C(O)[C@@H]1C[C@@H](O)CN1; Phg = N[C@H](C(=O)O)c1ccccc1; CO = O=C([*:1])[*:2]; Bn = c1ccc(C*)cc1
# Assays:
# [1] = in vivo; cited from earlier work
# SSTR2 and SSTR5 = conditions: cited from earlier work
# [2] = Solubility screening of SOM230 in lipid formulations (visual inspection); format: physicochemical
# Method: Placebo lipid mixture formulations as well as formulations of the single respective lipid alone were prepared in 1 OR vials according to Table 1. The sample size was 6 g. […] The samples were allowed to equilibrate at ambient room temperature; samples with formulation types 1-8 on end-over-end rotation and samples with formulation types 9-12 on magnetic stirring. The flow chart in FIG. 1 describes the sample preparation process. The screening covered the following formulation variables: • Lipid weight ratio (SPC/GDO weight ratio) • Co-solvent nature and concentration • Single lipid formulations • Single solvent (only PG) The samples were studied by visual inspection and the appearance was noted. […] Mixing at ambient room temperature and visual observation continued after addition of more SOM230 drug powder.
# [3] = cited from earlier work
# [4] = Stability comparison of SOM230 salt forms in lipid formulations, HPLC; format: physicochemical; conditions: storage for 2 weeks at 60° C.; ca 30 mg/mL free base
# Method: The lipid/SOM230(Pm), lipid/SOM230(Cl) and lipid/SOM230(Ac) formulations were divided into two 2R vials which were placed at 60° C. and the remaining amount from the preparation was assayed by HPLC (time point zero).
# The samples stored at 60° C. were pulled out after 2 weeks of storage for visual inspection and HPLC analysis.
compound,measurement,setting,value
"C[C@@H](O)[C@@H]1NC(=O)[C@H](CCCCN)NC(=O)[C@@H](Cc2c[nH]c3ccccc23)NC(=O)[C@H](Cc2ccccc2)NC(=O)[C@@H](NC(=O)[C@H](N)Cc2ccccc2)CSSC[C@@H](C(=O)N[C@H](CO)[C@@H](C)O)NC1=O [Octreotide, D-Phe-Cys-Phe-D-Trp-Lys-Thr-Cys-Thr-ol (2-7 disulphide bridge)]",Terminal half-life,[1],around 1.7 hours
same,Selectivity for somatostatin receptors,SSTR2 and SSTR5,high selectivity
NCCCC[C@@H]1NC(=O)[C@@H](Cc2c[nH]c3ccccc23)NC(=O)[C@H](c2ccccc2)NC(=O)[C@@H]2C[C@@H](OC(=O)NCCN)CN2C(=O)[C@H](Cc2ccccc2)NC(=O)[C@H](Cc2ccc(OCc3ccccc3)cc2)NC1=O [Pasireotide] (cyclo([Hyp]([CO-Ethylenediamine])[Phg][dW]KY(Bn)F); ring closure inferred),Solubility of SOM230 in EtOH,[2]; ethanol,< 1 wt %
same,Solubility of SOM230 in PG,[2]; propylene glycol only,> 1 wt %
same,Half-life,[3]; biological half-life,2 to 3 h
same,Initial half-life following the peak,"[3]; human, single subcutaneous dose",2 to 3 h
NCCCC[C@@H]1NC(=O)[C@@H](Cc2c[nH]c3ccccc23)NC(=O)[C@H](c2ccccc2)NC(=O)[C@@H]2C[C@@H](OC(=O)NCCN)CN2C(=O)[C@H](Cc2ccccc2)NC(=O)[C@H](Cc2ccc(OCc3ccccc3)cc2)NC1=O [SOM230 hydrochloride] (cyclo([Hyp]([CO-Ethylenediamine])[Phg][dW]KY(Bn)F)),Stability of salt form in the lipid formulations (HPLC),[4],more stable than the acetate salt but not as stable as the pamoate salt
Pasireotide pamoate [SOM230 pamoate],Stability of salt form in the lipid formulations (HPLC),[4],most stable salt form
